Experimental data taken from US20240269139A1, “COMPOUNDS FOR TARGETED PROTEIN DEGRADATION OF KINASES” (DANA-FARBER CANCER INSTITUTE, INC., priority 2020, published 2024).
Like-named read-outs stand apart in the source and are kept apart here.

Assays:
Format in all cases: cell-based
[1] = target: T1, protein kinases (human kinome) (Homo sapiens, UniProt Q14CZ7); conditions: Accession Q14CZ7, direction down
T1 sequence (Q14CZ7 1-662): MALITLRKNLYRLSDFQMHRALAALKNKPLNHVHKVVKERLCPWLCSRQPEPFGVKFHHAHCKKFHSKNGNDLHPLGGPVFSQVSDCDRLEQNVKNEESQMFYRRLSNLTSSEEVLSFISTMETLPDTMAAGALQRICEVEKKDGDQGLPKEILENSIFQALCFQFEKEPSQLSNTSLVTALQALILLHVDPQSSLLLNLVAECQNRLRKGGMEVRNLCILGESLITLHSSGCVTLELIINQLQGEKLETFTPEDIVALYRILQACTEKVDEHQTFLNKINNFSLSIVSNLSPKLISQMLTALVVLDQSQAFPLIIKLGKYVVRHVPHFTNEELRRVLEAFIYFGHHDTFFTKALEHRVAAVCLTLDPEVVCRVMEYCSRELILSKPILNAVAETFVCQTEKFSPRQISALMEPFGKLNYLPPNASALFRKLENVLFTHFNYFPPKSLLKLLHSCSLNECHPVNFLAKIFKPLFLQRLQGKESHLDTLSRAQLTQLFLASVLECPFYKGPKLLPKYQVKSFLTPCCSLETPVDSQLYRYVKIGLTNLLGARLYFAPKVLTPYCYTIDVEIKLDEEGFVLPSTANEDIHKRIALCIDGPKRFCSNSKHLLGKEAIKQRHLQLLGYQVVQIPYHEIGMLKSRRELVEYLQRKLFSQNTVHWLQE

[2] = target: protein kinases (human kinome) (Homo sapiens, UniProt Q16584)
[3] = target: T2, protein kinases (human kinome) (Homo sapiens, UniProt Q8TAS1)
T2 sequence (Q8TAS1 1-419): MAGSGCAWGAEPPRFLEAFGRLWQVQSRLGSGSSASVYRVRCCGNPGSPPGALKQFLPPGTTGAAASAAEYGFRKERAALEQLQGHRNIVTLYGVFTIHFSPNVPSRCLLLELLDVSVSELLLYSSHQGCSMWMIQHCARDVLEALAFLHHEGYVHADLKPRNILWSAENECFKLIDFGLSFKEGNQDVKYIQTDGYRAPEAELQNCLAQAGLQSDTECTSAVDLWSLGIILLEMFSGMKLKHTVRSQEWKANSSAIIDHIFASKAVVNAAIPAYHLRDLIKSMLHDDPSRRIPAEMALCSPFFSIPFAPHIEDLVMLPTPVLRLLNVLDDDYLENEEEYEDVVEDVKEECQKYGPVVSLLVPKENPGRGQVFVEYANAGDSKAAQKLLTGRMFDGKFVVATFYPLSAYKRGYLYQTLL

[4] = target: T3, protein kinases (human kinome) (Homo sapiens, UniProt P33981); conditions: for logFC TTK: Accession P33981
T3 sequence (P33981 1-857): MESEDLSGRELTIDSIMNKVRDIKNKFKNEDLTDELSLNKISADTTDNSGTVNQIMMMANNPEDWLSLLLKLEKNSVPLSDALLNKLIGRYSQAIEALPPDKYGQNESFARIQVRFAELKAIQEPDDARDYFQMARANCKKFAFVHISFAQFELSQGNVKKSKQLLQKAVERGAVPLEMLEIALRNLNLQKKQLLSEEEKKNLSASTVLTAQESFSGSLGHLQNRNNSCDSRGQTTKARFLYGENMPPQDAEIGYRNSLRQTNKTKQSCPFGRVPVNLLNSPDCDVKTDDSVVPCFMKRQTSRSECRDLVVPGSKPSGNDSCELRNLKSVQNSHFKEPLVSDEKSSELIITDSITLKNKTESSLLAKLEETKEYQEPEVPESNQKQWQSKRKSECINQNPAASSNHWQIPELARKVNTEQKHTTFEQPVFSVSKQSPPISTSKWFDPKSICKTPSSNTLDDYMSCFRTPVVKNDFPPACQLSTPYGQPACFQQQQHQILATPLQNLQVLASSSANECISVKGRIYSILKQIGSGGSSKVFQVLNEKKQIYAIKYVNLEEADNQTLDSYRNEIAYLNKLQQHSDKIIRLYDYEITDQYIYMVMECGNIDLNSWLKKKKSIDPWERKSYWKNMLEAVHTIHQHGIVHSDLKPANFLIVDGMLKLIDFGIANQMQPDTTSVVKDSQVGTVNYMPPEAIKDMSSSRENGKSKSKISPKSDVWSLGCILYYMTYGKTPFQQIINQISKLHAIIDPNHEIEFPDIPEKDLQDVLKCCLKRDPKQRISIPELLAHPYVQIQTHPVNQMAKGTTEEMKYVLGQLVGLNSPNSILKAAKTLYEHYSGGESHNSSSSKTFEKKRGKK

[5] = target: protein kinases (human kinome) (Homo sapiens, UniProt Q00535); conditions: for logFC of CDK5: Accession Q00535
[6] = Accession Q8TAS1, experiment wp076, direction down
[7] = UHMK1 (Q8TAS1), experiment wp076
[8] = experiment wp016, direction of change down
[9] = experiment wp137, direction of change down
[10] = experiment wp146, direction of change down

Sequence of protein kinases (human kinome) (Homo sapiens, UniProt Q00535) (Q00535 whole entry): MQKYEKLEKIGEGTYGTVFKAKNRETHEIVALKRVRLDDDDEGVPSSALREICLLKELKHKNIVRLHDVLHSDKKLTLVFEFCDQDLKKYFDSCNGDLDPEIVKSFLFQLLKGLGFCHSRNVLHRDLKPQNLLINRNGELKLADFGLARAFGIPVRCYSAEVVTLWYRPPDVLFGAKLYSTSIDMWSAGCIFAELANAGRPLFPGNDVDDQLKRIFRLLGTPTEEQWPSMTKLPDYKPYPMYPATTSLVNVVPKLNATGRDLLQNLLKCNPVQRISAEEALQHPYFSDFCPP
Sequence of protein kinases (human kinome) (Homo sapiens, UniProt Q16584) (Q16584 whole entry): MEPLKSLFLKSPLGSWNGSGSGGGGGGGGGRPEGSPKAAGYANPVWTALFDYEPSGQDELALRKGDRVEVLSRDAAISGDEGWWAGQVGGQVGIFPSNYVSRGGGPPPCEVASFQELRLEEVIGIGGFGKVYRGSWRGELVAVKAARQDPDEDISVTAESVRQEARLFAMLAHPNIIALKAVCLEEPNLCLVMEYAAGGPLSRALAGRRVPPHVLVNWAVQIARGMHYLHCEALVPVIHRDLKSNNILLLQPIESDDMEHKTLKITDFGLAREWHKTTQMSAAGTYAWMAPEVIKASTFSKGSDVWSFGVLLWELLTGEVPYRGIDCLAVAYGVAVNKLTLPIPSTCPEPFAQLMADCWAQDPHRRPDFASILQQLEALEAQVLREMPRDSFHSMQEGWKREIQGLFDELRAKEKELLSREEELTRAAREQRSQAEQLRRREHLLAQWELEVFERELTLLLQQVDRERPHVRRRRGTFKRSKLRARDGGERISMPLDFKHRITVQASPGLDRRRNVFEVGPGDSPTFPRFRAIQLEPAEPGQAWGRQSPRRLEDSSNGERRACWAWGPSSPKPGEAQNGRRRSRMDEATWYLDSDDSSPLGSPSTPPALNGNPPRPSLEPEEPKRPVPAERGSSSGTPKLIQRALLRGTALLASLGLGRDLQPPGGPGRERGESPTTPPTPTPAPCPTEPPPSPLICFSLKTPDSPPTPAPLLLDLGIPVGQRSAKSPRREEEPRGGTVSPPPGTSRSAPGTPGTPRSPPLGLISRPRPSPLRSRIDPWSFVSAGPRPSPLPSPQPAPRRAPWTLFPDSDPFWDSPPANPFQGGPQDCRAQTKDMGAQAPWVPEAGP

CC(=O)c1c(C)c2cnc(Nc3ccc(N4CCN(CCOCCOCCOCCNC(=O)COc5cccc6c5C(=O)N(C5CCC(=O)NC5=O)C6=O)CC4)cn3)nc2n(C2CCCC2)c1=O (centres unmarked) [BSJ.03.123]
logFC FASTKD3 ([1]; experiment wp084): −0.4728

CN(C)C(=O)c1cc2cnc(Nc3ccc(N4CCN(CCCCNC(=O)COc5cccc6c5C(=O)N(C5CCC(=O)NC5=O)C6=O)CC4)cn3)nc2n1C1CCCC1 (centres unmarked) [BSJ.04.132]
logFC FASTKD3 ([1]; experiment wp084): −0.5428

CS(=O)(=O)Nc1cccc(-c2csc3cnc(Nc4ccc(N5CCN(CCCCCOc6cccc7c6C(=O)N(C6CCC(=O)NC6=O)C7=O)CC5)cc4)nc23)c1 (centres unmarked) [DB0614, N-(3-(2-((4-(4-(5-((2-(2,6-Dioxopiperidin-3-yl)-1,3-dioxoisoindolin-4-yl)oxy)pentyl)piperazin-1-yl)phenyl)amino)thieno[3,2-d]pyrimidin-7-yl)phenyl)methanesulfonamide]
logFC MAP3K11 (Q16584) ([2]; experiment wp117): −0.7291

Cc1ccc(NC(=O)c2cccc(C(F)(F)F)c2)cc1N1Cc2cnc(Nc3ccc(N4CCN(CCCOc5cccc6c5C(=O)N(C5CCC(=O)NC5=O)C6=O)CC4)nc3)nc2N(C)C1=O (centres unmarked) [DB0662]
logFC UHMK1 ([3]; Accession Q8TAS1, experiment wp168, direction down): −0.3949
logFC UHMK1 ([3]; UHMK1 (Q8TAS1), experiment wp168): −0.3949
logFC MAP3K11 (Q16584) ([2]; experiment wp168): −0.7288

CC(C)(C)c1nc(-c2cccc(NS(=O)(=O)c3c(F)cccc3F)c2F)c(-c2ccnc(NCCOCCNC(=O)CCOCCOCCNc3cccc4c3C(=O)N(C3CCC(=O)NC3=O)C4=O)n2)s1 (centres unmarked) [DD.03.106]
logFC FASTKD3 ([1]; experiment wp147, 4 uM): −0.8259

CC(C)(C)c1nc(-c2cccc(NS(=O)(=O)c3c(F)cccc3F)c2F)c(-c2ccnc(NCCOCCNC(=O)CCOCCOCCNc3cccc4c3CN(C3CCC(=O)NC3=O)C4=O)n2)s1 (centres unmarked) [DD.03.107]
logFC FASTKD3 ([1]; experiment wp147, 1 uM): −0.6939
logFC FASTKD3 ([1]; experiment wp147, 2 uM): −0.6931
logFC FASTKD3 ([1]; experiment wp147, 4 uM): −1.191

Cc1ncsc1-c1ccc([C@H](C)NC(=O)[C@@H]2C[C@@H](O)CN2C(=O)[C@@H](NC(=O)CCOCCOCCN2CCN(c3ccc(Nc4ncc(Cl)c(Nc5ccccc5S(=O)(=O)C(C)C)n4)cc3)CC2)C(C)(C)C)cc1 [FMF.06.098.1]
logFC UHMK1 ([3]; Accession Q8TAS1, experiment wp108, direction down): −0.3878
logFC UHMK1 ([3]; UHMK1 (Q8TAS1), experiment wp108): −0.3878

O=C(COc1cccc2c1C(=O)N(C1CCC(=O)NC1=O)C2=O)NCCCCCCCC(=O)NC1(c2ccc(-c3nc4ccn5c(=O)[nH]nc5c4cc3-c3ccccc3)cc2)CCC1 (centres unmarked) [INY.01.140.1]
logFC FASTKD3 ([1]; experiment wp081): −0.3846

Cc1cnc(Nc2ccc(N3CCN(CCOCCOCCNC(=O)COc4cccc5c4C(=O)N(C4CCC(=O)NC4=O)C5=O)CC3)cc2)nc1Nc1cccc(S(=O)(=O)NC(C)(C)C)c1 (centres unmarked) [JWG.118]
logFC FASTKD3 ([1]; experiment wp071): −0.4386

CCc1cnn2c(N(Cc3ccc(N)nc3)C(=O)CCOCCOCCOCCNC(=O)CNc3cccc4c3C(=O)N(C3CCC(=O)NC3=O)C4=O)cc(N3CCCC[C@H]3CCO)nc12 (some centres unmarked) [MFH.5.115.2]
logFC UHMK1 [3, 6]: −0.8774
logFC UHMK1 [3, 7]: −0.8774
logFC TTK ([4]; experiment wp076): −0.3249
logFC TTK (P33981) ([4]; experiment wp076): −0.3249

O=C1CCC(N2C(=O)c3cccc(NCCCCCCCCN4CCC(NC(=O)c5[nH]ncc5NC(=O)c5c(Cl)cccc5Cl)CC4)c3C2=O)C(=O)N1 (centres unmarked) [MFH.5.126.1]
logFC UHMK1 [3, 6]: −0.4789
logFC UHMK1 [3, 7]: −0.4789
logFC TTK ([4]; experiment wp076): −0.4412
logFC TTK (P33981) ([4]; experiment wp076): −0.4412

Cc1ccc(C(=O)Nc2ccc(CN3CCN(CCCOCCOCCOCCNC(=O)COc4cccc5c4C(=O)N(C4CCC(=O)NC4=O)C5=O)CC3)c(C(F)(F)F)c2)cc1C#Cc1cnc2cccnn12 (centres unmarked) [SB1.G.187]
logFC of CDK5 ([5]; experiment wp056): −0.4804
logFC of CDK5 ([5]; experiment wp103): −0.5924
logFC of CDK5 ([5]; experiment wp105): −0.6053
logFC CDK5 (Q00535) ([5]; Experiment wp105, direction of change down): −0.6053
logFC CDK5 (Q00535) ([5]; Experiment wp107): −0.6778
logFC CDK5 (Q00535) ([5]; Experiment wp172): −0.8938
logFC CDK5 (Q00535) ([5]; experiment wp056, direction of change down): −0.4804
logFC CDK5 (Q00535) ([5]; experiment wp103, direction of change down): −0.5924
logFC CDK5 (Q00535) ([5]; experiment wp107, direction of change down): −0.6778
logFC CDK5 (Q00535) ([5]; experiment wp172, direction of change down): −0.8938

CC(C)S(=O)(=O)c1ccccc1Nc1nc(Nc2ccc(N3CCN(CCOCCNC(=O)CNc4ccc5c(c4)C(=O)N(C4CCC(=O)NC4=O)C5=O)CC3)cc2)ncc1Cl (centres unmarked) [SK.3.93]
logFC of CDK5 ([5]; experiment wp016): −0.9703
logFC CDK5 (Q00535) [5, 8]: −0.9703

CC(C)S(=O)(=O)c1ccccc1Nc1nc(Nc2ccc(N3CCN(CCOCCOCCNC(=O)CNc4cccc5c4C(=O)N(C4CCC(=O)NC4=O)C5=O)CC3)cc2)ncc1Cl (centres unmarked) [TL12.186]
logFC of CDK5 ([5]; experiment wp016): −0.9261
logFC CDK5 (Q00535) [5, 8]: −0.9261
logFC CDK5 (Q00535) ([5]; experiment wp131): −1.3
logFC CDK5 (Q00535) ([5]; experiment wp131, direction of change down): −1.3
logFC CDK5 (Q00535) ([5]; experiment wp137): −1.234
logFC CDK5 (Q00535) [5, 9]: −1.234
logFC FASTKD3 ([1]; experiment wp137): −0.6244
logFC MAP3K11 (Q16584) ([2]; experiment wp131): −1.795
logFC MAP3K11 (Q16584) ([2]; experiment wp137): −1.493

CC(C)S(=O)(=O)c1ccccc1Nc1nc(Nc2ccc(N3CCN(CCOCCOCCC(=O)NCCNc4cccc5c4CN(C4CCC(=O)NC4=O)C5=O)CC3)cc2)ncc1Cl (centres unmarked) [TL13.97]
logFC CDK5 (Q00535) ([5]; experiment wp137): −1.114
logFC CDK5 (Q00535) [5, 9]: −1.114
logFC MAP3K11 (Q16584) ([2]; experiment wp137): −0.7626

Cc1ccc(C(=O)Nc2ccc(CN3CCN(CCOCCOCCNC(=O)CNc4cccc5c4C(=O)N(C4CCC(=O)NC4=O)C5=O)CC3)c(C(F)(F)F)c2)cc1C#Cc1cnc2cccnn12 (centres unmarked) [TL13.150]
logFC of CDK5 ([5]; experiment wp081): −0.3786
logFC CDK5 (Q00535) ([5]; experiment wp081, direction of change down): −0.3786

NC(=O)c1c(F)cccc1Nc1nc(Nc2ccc(S(=O)(=O)NCCOCCOCCOCCOCCNc3cccc4c3C(=O)N(C3CCC(=O)NC3=O)C4=O)cc2)ncc1Br (centres unmarked) [TMX.02.138]
logFC CDK5 (Q00535) ([5]; experiment wp146): −3.29
logFC CDK5 (Q00535) [5, 10]: −3.29
logFC MAP3K11 (Q16584) ([2]; experiment wp146): −0.9241
logFC TTK ([4]; experiment wp146): −0.6178
logFC TTK (P33981) ([4]; experiment wp146): −0.6178

Cc1cc(Nc2ncc(Br)c(Nc3cccc(F)c3C(N)=O)n2)ccc1S(=O)(=O)NCCOCCOCCOCCOCCNc1cccc2c1C(=O)N(C1CCC(=O)NC1=O)C2=O (centres unmarked) [TMX.02.174]
logFC CDK5 (Q00535) ([5]; experiment wp146): −3.161
logFC CDK5 (Q00535) [5, 10]: −3.161
logFC MAP3K11 (Q16584) ([2]; experiment wp146): −1.874
logFC TTK ([4]; experiment wp146): −0.7225
logFC TTK (P33981) ([4]; experiment wp146): −0.7225

C=CCn1c(=O)c2cnc(Nc3ccc(N4CCN(CCCNc5cccc6c5C(=O)N(C5CCC(=O)NC5=O)C6=O)CC4)cc3)nc2n1-c1cccc(C(C)(C)O)n1 (centres unmarked) [ZNL.02.096]
logFC FASTKD3 ([1]; experiment wp056): −0.7131
